Experimental data from patent US8063018B2, “Bivalent thrombin binding molecules comprising linkers” (National Research Council of Canada, priority 2004, dated 2011).

biological target: thrombin (Homo sapiens, UniProt P00734); test: Fibrinogen clotting assay catalyzed by thrombin; format: biochemical; conditions: IC50, nM (25° C.), 25° C.; concentration needed to double the clotting time
Experimental: Curves represent OD420 time course after the addition of 0.6 nM thrombin in the presence of (♦) 0 nM; (◯) 0.5 nM; (□) 1 nM; (Δ) 1.5 nM; (⋄) 2.5 nM; (●) 3.75 nM; (▪) 6.25 nM; and (▴) […] of the inhibitor with linker (GS)n and n=2 (SEQ. ID. NO. 50) (a); n=4 (SEQ. ID. NO. 51) (b); n=6 (SEQ. ID. NO. 52) (c); n=8 (SEQ. ID. NO. 53) (d); n=10 (SEQ. ID. NO. 54) (e); and in the presence of (♦) 0 nM; (◯) 1 nM; (□) 2 nM; (Δ) 4 nM; (⋄) 6 nM; (●) 10 nM; (▪) 15 nM; and (▴) 25 nM of the inhibitor with linker (GS)n and n=12 (SEQ. ID. NO. 55) (f); n=14 (SEQ. ID. NO. 56) (g), at 37° C. The onset clotting time was determined as an intersection of the baseline and the extrapolated linear portion of the OD change curve. […] Curves (i) represent OD420 time course in the presence of (A) 0 nM; (◯) 1 nM; (□) 2 nM; (Δ) 4 nM; (⋄) 6 nM; and (●) 15 nM of the inhibitor with linker […] (SEQ. ID. NO. 103), at 37° C. […] represent OD420 time course in the presence of (◯) 0 nM; (□) 2 nM; (Δ) 4 nM; (⋄) 6 nM; (●) 8 nM; (▪) 10 nM; (▴) 12 nM; and (♦) 15 nM; of the inhibitor with linker […] (SEQ. ID. NO. 58) at 25° C. Curves (k) represent OD420 time course in the presence of (◯) 0 nM; (□) 0.5 nM; (Δ) 1 nM; (⋄) 2 nM; (●) 3 nM; (▪) 4 nM; (▴) 5 nM; and (♦) 6 nM; of the inhibitor with linker […] (SEQ. ID. NO. 105) at 37° C. Curves (I) represent OD420 time course in the presence of (◯) 0 nM; (□) 0.25 nM; (Δ) 0.5 nM; (⋄) 1 nM; (●) 1.5 nM; (▪) 2 nM; and (▴) 2.5 nM; of the inhibitor with linker […] (SEQ. ID. NO. 104) at 37° C. Curves (m) represent OD420 time course in the presence of (◯) 0 nM; (□) 2 nM; (Δ) 4 nM; (⋄) 6 nM; (●) 8 nM; (▴) 10 nM; and (A) 12 nM; of the inhibitor with linker […] (SEQ. ID. NO. 106) at 37° C. Curves (n) represent OD420 time course in the presence of (◯) 0 nM; (□) 1 nM; (Δ) 2 nM; (⋄) 3 nM; (●) 4 nM; (▪) 5 nM; (▴) 6 nM; and (♦) 7 nM; of the inhibitor with linker […] (SEQ. ID. NO. 107) at 37° C. Curves (o) represent OD420 time course in the presence of (◯) 0 nM; (□) 4 nM; and (Δ) 8 nM; of the inhibitor with linker GQSHNR (SEQ. ID. NO. 108) at 37° C.
Other experimental conditions were as used for the assays described in FIG. 2.
Clotting assays were carried out by use of the protocols described previously (DiMaio and others, 1990, 21698-21703; Witting and others, 1992, 737-743). The assay employs bovine plasma fibrinogen dissolved at 0.1% in 50 mM Tris-Cl, 100 mM NaCl, 0.1% PEG-8000 at pH 7.6 (i.e. the clotting buffer). Each assay mixture contained a certain concentration of the peptide, and the reaction was started by the addition of human thrombin to a final concentration of 0.6-1.2 nM. Optical absorbance increase at 420 nm caused by fibrin clot formation was measured at 25° C. or 37° C. using the Spectramax plate reader. The onset clotting time was determined as an intersection of the baseline and the extrapolated linear portion of the OD change curve. The concentration of a peptide needed to double the clotting time was defined as IC50 (DiMaio and others, 1990, 21698-21703). Kinetic amidolytic curves were obtained in clotting buffer at 25° C. using eight inhibitor concentrations and three to five concentrations of the chromogenic substrate S-2238 (Chromogenix) (DiMaio and others, 1990, 21698-21703). Inhibition constants were extracted from Lineweaver-Burk equation by using weighted linear regression. Errors in Ki determination were estimated by using Monte-Carlo sampling with 1-3% variance of the experimental points.

SMILES | IC50 [nM]
CC[C@H](C)[C@H](NC(=O)[C@H](CCC(=O)O)NC(=O)[C@H](CCC(=O)O)NC(=O)[C@H](Cc1ccccc1)NC(=O)[C@H](CC(=O)O)NC(=O)CNC(=O)[C@H](CO)NC(=O)[C@@H](NC(=O)[C@H](CCCCN)NC(=O)[C@H](CCC(=O)O)NC(=O)[C@H](Cc1ccc(O)cc1)NC(=O)[C@H](Cc1c[nH]cn1)NC(=O)[C@@H]1CCCN1C(=O)[C@H](CO)NC(=O)CNC(=O)[C@H](CO)NC(=O)[C@@H](NC(=O)[C@H](CCCCN)NC(=O)[C@H](CCC(=O)O)NC(=O)[C@H](Cc1ccc(O)cc1)NC(=O)[C@H](Cc1c[nH]cn1)NC(=O)[C@@H]1CCCN1C(=O)[C@H](CO)NC(=O)CNC(=O)[C@H]1CCCCN1C(=O)[C@H](CCCNC(=N)N)NS(=O)(=O)c1ccc(C(C)(C)C)cc1)C(C)C)C(C)C)C(=O)N1CCC[C@H]1C(=O)N[C@@H](CCC(=O)O)C(=O)N[C@@H](CCC(=O)O)C(=O)N[C@@H](Cc1ccc(O)cc1)C(=O)N[C@@H](CC(C)C)C(=O)N[C@@H](CCC(N)=O)C(=O)O [P3161] | 0.7

same assay, conditions: IC50, nM (37° C.), 37° C.; concentration needed to double the clotting time

SMILES | IC50 [nM]
CC[C@H](C)[C@H](NC(=O)[C@H](CCC(=O)O)NC(=O)[C@H](CCC(=O)O)NC(=O)[C@H](Cc1ccccc1)NC(=O)[C@H](CC(=O)O)NC(=O)CNC(=O)[C@H](CCCNC(=N)N)NC(=O)[C@H](CC(=O)O)NC(=O)[C@H](C)NC(=O)[C@H](CCCNC(=N)N)NC(=O)[C@H](CO)NC(=O)[C@H](CCC(=O)O)NC(=O)[C@H](CCSC)NC(=O)[C@H](Cc1ccc(O)cc1)NC(=O)CNC(=O)[C@H]1CCCCN1C(=O)[C@H](CCCNC(=N)N)NS(=O)(=O)c1ccc(C(C)(C)C)cc1)C(=O)N1CCC[C@H]1C(=O)N[C@@H](CCC(=O)O)C(=O)N[C@@H](CCC(=O)O)C(=O)N[C@@H](Cc1ccc(O)cc1)C(=O)N[C@@H](CC(C)C)C(=O)N[C@@H](CCC(N)=O)C(=O)O [P3236] | 1 ± 0.5
CC[C@H](C)[C@H](N)C(=O)N[C@@H](CCCNC(=N)N)C(=O)N[C@@H](Cc1ccccc1)C(=O)N[C@H](C(=O)N[C@@H](CC(=O)O)C(=O)NCC(=O)N[C@@H](CCC(=O)O)C(=O)NCC(=O)N[C@H](C(=O)N1CCC[C@H]1C(=O)N[C@@H](CC(N)=O)C(=O)N1CCC[C@H]1C(=O)N[C@@H](CCC(=O)O)C(=O)N[C@@H](CO)C(=O)N[C@@H](Cc1c[nH]cn1)C(=O)N[C@@H](CC(N)=O)C(=O)N[C@@H](CC(N)=O)C(=O)NCC(=O)N[C@@H](CC(=O)O)C(=O)N[C@@H](Cc1ccccc1)C(=O)N[C@@H](CCC(=O)O)C(=O)N[C@@H](CCC(=O)O)C(=O)N[C@H](C(=O)N1CCC[C@H]1C(=O)N[C@@H](CCC(=O)O)C(=O)N[C@@H](CCC(=O)O)C(=O)N[C@@H](Cc1ccc(O)cc1)C(=O)N[C@@H](CC(C)C)C(=O)N[C@@H](CCC(N)=O)C(=O)O)[C@@H](C)CC)[C@@H](C)O)[C@@H](C)O [mini-hirudin 2] | 14 ± 1
CC[C@H](C)[C@H](NC(=O)[C@H](CCC(=O)O)NC(=O)[C@H](CCC(=O)O)NC(=O)[C@H](Cc1ccccc1)NC(=O)[C@H](CC(=O)O)NC(=O)CNC(=O)[C@H](CCCNC(=N)N)NC(=O)[C@H](CC(N)=O)NC(=O)[C@H](Cc1c[nH]cn1)NC(=O)[C@H](CO)NC(=O)[C@H](CCC(N)=O)NC(=O)CNC(=O)[C@H]1CCCCN1C(=O)[C@H](CCCNC(=N)N)NS(=O)(=O)c1ccc(C(C)(C)C)cc1)C(=O)N1CCC[C@H]1C(=O)N[C@@H](CCC(=O)O)C(=O)N[C@@H](CCC(=O)O)C(=O)N[C@@H](Cc1ccc(O)cc1)C(=O)N[C@@H](CC(C)C)C(=O)N[C@@H](CCC(N)=O)C(=O)O [P3238] | 2 ± 1
CC[C@H](C)[C@H](NC(=O)[C@H](CCC(=O)O)NC(=O)[C@H](CCC(=O)O)NC(=O)[C@H](Cc1ccccc1)NC(=O)[C@H](CC(=O)O)NC(=O)CNC(=O)[C@H](CC(=O)O)NC(=O)[C@H](CC(N)=O)NC(=O)[C@H](Cc1c[nH]cn1)NC(=O)[C@H](CO)NC(=O)[C@H](CCC(N)=O)NC(=O)[C@@H]1CCCN1C(=O)[C@H](CCCCN)NC(=O)[C@@H]1CCCN1C(=O)[C@@H](NC(=O)CNC(=O)[C@H](CCC(=O)O)NC(=O)CNC(=O)[C@H](CC(=O)O)NC(=O)[C@@H](NC(=O)[C@H](Cc1ccccc1)NC(=O)[C@H](CCCNC(=N)N)NC(=O)[C@@H](N)C(C)C)[C@@H](C)O)[C@@H](C)O)C(=O)N1CCC[C@H]1C(=O)N[C@@H](CCC(=O)O)C(=O)N[C@@H](CCC(=O)O)C(=O)N[C@@H](Cc1ccc(O)cc1)C(=O)N[C@@H](CC(C)C)C(=O)N[C@@H](CCC(N)=O)C(=O)O [mini-hirudin 1] | 33 ± 3
CC[C@H](C)[C@H](NC(=O)[C@H](CCC(=O)O)NC(=O)[C@H](CCC(=O)O)NC(=O)[C@H](Cc1ccccc1)NC(=O)[C@H](CC(=O)O)NC(=O)CNC(=O)[C@H](CO)NC(=O)CNC(=O)[C@H](CO)NC(=O)CNC(=O)[C@H](CO)NC(=O)CNC(=O)[C@H](CO)NC(=O)CNC(=O)[C@H](CO)NC(=O)CNC(=O)[C@H](CO)NC(=O)CNC(=O)[C@H](CO)NC(=O)CNC(=O)[C@H](CO)NC(=O)CNC(=O)[C@H]1CCCCN1C(=O)[C@H](CCCN=C(N)N)NS(=O)(=O)c1ccc(C(C)(C)C)cc1)C(=O)N1CCC[C@H]1C(=O)N[C@@H](CCC(=O)O)C(=O)N[C@@H](CCC(=O)O)C(=O)N[C@@H](Cc1ccc(O)cc1)C(=O)N[C@@H](CC(C)C)C(=O)N[C@@H](CCC(N)=O)C(=O)O [P3152] | 0.7 ± 0.1
CC[C@H](C)[C@H](NC(=O)[C@H](CCC(=O)O)NC(=O)[C@H](CCC(=O)O)NC(=O)[C@H](Cc1ccccc1)NC(=O)[C@H](CC(=O)O)NC(=O)CNC(=O)[C@H](CO)NC(=O)CNC(=O)[C@H](CO)NC(=O)CNC(=O)[C@H]1CCCCN1C(=O)[C@H](CCCN=C(N)N)NS(=O)(=O)c1ccc(C(C)(C)C)cc1)C(=O)N1CCC[C@H]1C(=O)N[C@@H](CCC(=O)O)C(=O)N[C@@H](CCC(=O)O)C(=O)N[C@@H](Cc1ccc(O)cc1)C(=O)N[C@@H](CC(C)C)C(=O)N[C@@H](CCC(N)=O)C(=O)O [P3149] | 9.7 ± 0.7
CC[C@H](C)[C@H](NC(=O)[C@H](CCC(N)=O)NC(=O)[C@@H]1CCCN1C(=O)[C@H](CCCNC(=N)N)NC(=O)[C@@H]1CCCN1C(=O)[C@H](C)NC(=O)[C@H](Cc1c[nH]cn1)NC(=O)[C@H](CO)NC(=O)CNC(=O)[C@H]1CCCCN1C(=O)[C@H](CCCNC(=N)N)NS(=O)(=O)c1ccc(C(C)(C)C)cc1)C(=O)N[C@@H](Cc1c[nH]cn1)C(=O)N[C@@H](CC(N)=O)C(=O)N[C@@H](CC(=O)O)C(=O)NCC(=O)N[C@@H](CC(=O)O)C(=O)N[C@@H](Cc1ccccc1)C(=O)N[C@@H](CCC(=O)O)C(=O)N[C@@H](CCC(=O)O)C(=O)N[C@H](C(=O)N1CCC[C@H]1C(=O)N[C@@H](CCC(=O)O)C(=O)N[C@@H](CCC(=O)O)C(=O)N[C@@H](Cc1ccc(O)cc1)C(=O)N[C@@H](CC(C)C)C(=O)N[C@@H](CCC(N)=O)C(=O)O)[C@@H](C)CC [P3210] | 0.6
